What was measured:
ACBD4 = molecular target: T1, ACBD4 (Homo sapiens, UniProt Q8NC06); assay: competition with […]C18:1-CoA, pull-down on Ni-NTA resin; assay type: binding; conditions: 2 uM protein, 5 uM [14C]C18:1-CoA, 0.2-20 uM competitor
T1 construct: recombinant MBP-His tagged, E. coli, amylose resin purified, tag kept
T1 sequence (Q8NC06 1-305 isoform Q8NC06-2): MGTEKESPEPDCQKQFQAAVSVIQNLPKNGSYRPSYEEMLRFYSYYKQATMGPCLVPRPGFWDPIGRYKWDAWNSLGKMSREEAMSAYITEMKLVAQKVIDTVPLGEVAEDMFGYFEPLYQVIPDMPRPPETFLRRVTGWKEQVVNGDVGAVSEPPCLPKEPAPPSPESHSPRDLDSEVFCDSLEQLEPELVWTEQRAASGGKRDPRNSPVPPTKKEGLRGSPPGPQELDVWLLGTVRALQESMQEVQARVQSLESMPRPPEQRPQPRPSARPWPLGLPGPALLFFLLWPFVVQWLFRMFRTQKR

ACBD5 = molecular target: T2, ACBD5 (Homo sapiens, UniProt Q5T8D3); assay: as above; assay type: binding; conditions: 2 uM protein, 5 uM [14C]C18:1-CoA, 0.2-20 uM competitor
T2 construct: recombinant MBP-His tagged, E. coli, amylose resin purified, tag kept
T2 sequence (Q5T8D3 1-490 isoform Q5T8D3-2): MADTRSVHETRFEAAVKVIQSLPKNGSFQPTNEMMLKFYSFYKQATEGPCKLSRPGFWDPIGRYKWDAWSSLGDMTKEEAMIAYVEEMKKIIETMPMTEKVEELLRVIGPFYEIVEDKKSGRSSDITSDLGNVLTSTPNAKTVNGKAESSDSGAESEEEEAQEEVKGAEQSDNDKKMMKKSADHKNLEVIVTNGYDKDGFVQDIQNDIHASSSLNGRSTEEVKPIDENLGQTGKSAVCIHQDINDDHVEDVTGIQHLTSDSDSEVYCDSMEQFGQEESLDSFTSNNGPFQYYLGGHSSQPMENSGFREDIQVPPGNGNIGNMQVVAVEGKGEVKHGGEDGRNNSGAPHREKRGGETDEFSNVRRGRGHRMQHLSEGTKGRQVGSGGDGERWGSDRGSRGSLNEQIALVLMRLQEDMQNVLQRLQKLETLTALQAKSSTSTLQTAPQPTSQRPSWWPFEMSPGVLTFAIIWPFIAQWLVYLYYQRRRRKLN

## CCCCCCCCCCCCCCCCCCCCCCCC(=O)SCCNC(=O)CCNC(=O)[C@H](O)C(C)(C)COP(=O)(O)OP(=O)(O)OC[C@H]1O[C@@H](n2cnc3c(N)ncnc32)[C@H](O)[C@@H]1OP(=O)(O)O [C24-CoA]
ACBD4
  competition with [14C]C18:1-CoA, pull-down on Ni-NTA resin: ACBD4, which displayed a similar preference for long and very-long acyl-CoAs
ACBD5
  competition with [14C]C18:1-CoA, pull-down on Ni-NTA resin: a stronger preference for the very-long-chain C24-CoA compared to the two long-chain acyl-CoAs

Source: paper PMC10410513, “Differential roles for ACBD4 and ACBD5 in peroxisome–ER interactions and lipid metabolism” (The Journal of Biological Chemistry, 2023)
